According to US20200087248A1, “Fluoroallylamine Derivative And Use Thereof” (SICHUAN KELUN-BIOTECH BIOPHARMACEUTICAL CO., LTD., priority 2017, published 2020):
Structures can show the parent of a compound that is named as a salt.

Assays:
[1] = target: T1, VAP-1 (Homo sapiens, UniProt Q16853); test: Inhibition of the enzymatic activity of VAP-1 in vitro (Amplex Red); format: biochemical; conditions: VAP-1 protein about 20 nM, 10 min pre-incubation, benzylamine substrate; read-out: IC50, inhibition against the enzymatic activity of VAP-1
T1 construct: purchased R&D Systems
T1 sequence (Q16853 1-763): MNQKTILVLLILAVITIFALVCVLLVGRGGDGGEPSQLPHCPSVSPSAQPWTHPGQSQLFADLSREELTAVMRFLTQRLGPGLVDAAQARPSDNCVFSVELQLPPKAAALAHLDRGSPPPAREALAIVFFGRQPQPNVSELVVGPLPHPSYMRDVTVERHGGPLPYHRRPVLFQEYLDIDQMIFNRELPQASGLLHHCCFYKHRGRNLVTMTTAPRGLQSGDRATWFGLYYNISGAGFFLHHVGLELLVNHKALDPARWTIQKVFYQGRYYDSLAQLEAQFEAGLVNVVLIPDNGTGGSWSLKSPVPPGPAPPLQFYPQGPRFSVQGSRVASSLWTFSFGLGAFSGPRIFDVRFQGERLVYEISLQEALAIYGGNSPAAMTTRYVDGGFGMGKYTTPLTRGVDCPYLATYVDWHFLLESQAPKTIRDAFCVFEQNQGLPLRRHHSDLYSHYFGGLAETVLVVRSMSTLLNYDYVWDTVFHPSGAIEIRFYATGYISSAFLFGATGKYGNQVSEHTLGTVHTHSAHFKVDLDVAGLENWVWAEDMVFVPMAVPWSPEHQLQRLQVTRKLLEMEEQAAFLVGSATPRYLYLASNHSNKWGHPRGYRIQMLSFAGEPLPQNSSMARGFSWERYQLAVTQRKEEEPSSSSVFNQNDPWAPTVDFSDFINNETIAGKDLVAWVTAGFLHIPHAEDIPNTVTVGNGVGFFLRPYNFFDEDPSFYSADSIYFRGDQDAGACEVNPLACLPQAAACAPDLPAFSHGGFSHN
How it was run: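 About 20 nM recombinant VAP-1 preincubated with compound 10 min at RT in 50 mM PBS pH 7.4; reaction started with […] benzylamine, 1 U/mL HRP and 200 μM Amplex Red. Kinetic fluorescence (Ex/Em 540/590 nm) slope gave rate; IC50 by four-parameter fit.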

[2] = target: T2, hERG (Homo sapiens, UniProt Q12809); test: hERG fluorescence polarization inhibition experiment; conditions: hERG cell membrane, 25° C. 2 hours, read-out: hERG (IC50 range, competitive binding vs tracer)
T2 construct: purchased ThermoFisher; host or cells: hERG cell membrane supplied with the kit
How it was run: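 Fluorescence-polarization tracer displacement on hERG cell membranes; compound and high-affinity tracer incubated 2 h at 25 °C. % inhibition from mP relative to buffer (0%) and 30 μM E4031 (100%) over several concentrations, giving an IC50 range.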

[3] = target: T3, MAO-A (Homo sapiens, UniProt P21397); test: Inhibition of the enzymatic activity of MAO-A; format: biochemical; conditions: range of IC50 from inhibition rates at 100 μM and 10 μM; read-out: IC50, inhibition against the enzymatic activity of MAO-A
T3 construct: purchased Sigma Aldrich
T3 sequence (P21397 1-527): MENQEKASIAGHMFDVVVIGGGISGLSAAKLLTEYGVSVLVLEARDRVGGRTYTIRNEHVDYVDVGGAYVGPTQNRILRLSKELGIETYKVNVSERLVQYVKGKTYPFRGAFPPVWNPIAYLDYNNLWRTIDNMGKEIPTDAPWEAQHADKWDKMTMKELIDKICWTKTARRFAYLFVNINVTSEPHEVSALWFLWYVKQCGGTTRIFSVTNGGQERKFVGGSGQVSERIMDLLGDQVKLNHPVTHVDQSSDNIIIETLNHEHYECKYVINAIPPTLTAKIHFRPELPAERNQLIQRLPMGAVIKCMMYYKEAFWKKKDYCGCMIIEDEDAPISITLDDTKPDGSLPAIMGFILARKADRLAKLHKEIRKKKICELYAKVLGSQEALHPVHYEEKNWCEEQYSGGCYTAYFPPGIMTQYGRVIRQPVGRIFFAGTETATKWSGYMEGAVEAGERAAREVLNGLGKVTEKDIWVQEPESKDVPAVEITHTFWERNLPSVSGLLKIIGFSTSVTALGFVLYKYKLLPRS
Description: Inhibition Experiment Against the Enzymatic Activity of MAO-A (Monoamine Oxidase Type A)
1. Test kit: Amplex® Red Monoamine Oxidase Assay, Manufacturer: ThermoFisher
2. Reaction Buffer Solution: 50 mM PBS, pH 7.4
Protein: MAO-A, manufacturer: Sigma Aldrich
According to the method as described in the specification of the kit, MAO-A protein (15 μg/ml) and different concentrations of the test compound were pre-incubated at room temperature for 30 minutes, and then 200 μM p-tyramine hydrochloride, 1 U/mL HRP and 200 µM Amplex Red reagent were added to start the reaction. In kinetic mode, fluorescence signals were measured at Ex/Em=540/590 nm. The inhibition rate of each concentration group was calculated, wherein the ratio of fluorescence signal to reaction time ratio is the reaction rate, the vehicle group (DMSO) is the negative control, and the reaction buffer solution group (without enzymes and the compounds) is the blank control.
Percent inhibition rate (%)=(1-(reaction rate of each compound concentration group−reaction rate of the blank group)/(reaction rate of vehicle group−reaction rate of the blank group))*100.
According to the above method, the inhibition of the compound against the enzymatic activity of MAO-A was measured, and the range of IC50 was obtained according to the inhibition rates at 100 μM and 10 μM.

T2 sequence (Q12809 whole entry): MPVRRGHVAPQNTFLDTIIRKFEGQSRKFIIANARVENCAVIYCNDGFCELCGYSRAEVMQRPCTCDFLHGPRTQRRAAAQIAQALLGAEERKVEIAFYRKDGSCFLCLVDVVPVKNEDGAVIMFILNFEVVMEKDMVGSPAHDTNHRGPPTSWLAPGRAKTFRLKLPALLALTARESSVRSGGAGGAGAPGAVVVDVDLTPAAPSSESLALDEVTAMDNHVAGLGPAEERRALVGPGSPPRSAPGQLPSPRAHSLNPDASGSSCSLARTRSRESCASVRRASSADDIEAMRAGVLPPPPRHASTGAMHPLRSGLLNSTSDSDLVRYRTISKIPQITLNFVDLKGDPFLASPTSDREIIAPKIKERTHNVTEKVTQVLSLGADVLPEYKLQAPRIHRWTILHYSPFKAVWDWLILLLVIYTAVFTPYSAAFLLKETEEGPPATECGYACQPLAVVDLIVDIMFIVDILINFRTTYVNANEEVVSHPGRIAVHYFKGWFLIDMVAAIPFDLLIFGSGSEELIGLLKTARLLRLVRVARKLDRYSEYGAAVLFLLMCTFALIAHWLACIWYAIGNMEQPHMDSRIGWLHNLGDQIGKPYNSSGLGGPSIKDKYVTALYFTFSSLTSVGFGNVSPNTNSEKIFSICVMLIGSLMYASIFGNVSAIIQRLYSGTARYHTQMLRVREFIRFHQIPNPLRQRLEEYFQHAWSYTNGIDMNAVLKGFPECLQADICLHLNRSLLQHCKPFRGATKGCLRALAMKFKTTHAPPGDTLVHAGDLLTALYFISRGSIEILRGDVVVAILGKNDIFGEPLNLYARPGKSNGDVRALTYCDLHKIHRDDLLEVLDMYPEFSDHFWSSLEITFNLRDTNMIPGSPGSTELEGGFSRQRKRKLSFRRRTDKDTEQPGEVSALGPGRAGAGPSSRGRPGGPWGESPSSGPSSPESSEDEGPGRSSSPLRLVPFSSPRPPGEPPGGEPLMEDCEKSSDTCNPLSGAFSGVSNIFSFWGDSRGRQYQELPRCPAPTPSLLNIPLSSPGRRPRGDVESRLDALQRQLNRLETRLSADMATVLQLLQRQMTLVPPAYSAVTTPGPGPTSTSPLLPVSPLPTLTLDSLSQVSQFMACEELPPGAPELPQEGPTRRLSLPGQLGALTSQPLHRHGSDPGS

| Compound | IC50 [1] [nM] | IC50 [2] [µM] | IC50 [3] [µM] |
| --- | --- | --- | --- |
| CC1(C)Cc2cc(OC/C(=C/F)CN)ccc2C(=O)N1 [HC38-E, (E)-6-((2-(aminomethyl)-3-fluoroallyl)oxy)-3,3-dimethyl-3,4-dihydroisoquinolin-1(2H)-one hydrochloride] | 2.85 ± 0.3 | – | – |
| NC/C(=C\F)COc1ccc(C(=O)Nc2ccccc2)cc1 [TM1-E, (E)-N-phenyl-4-((2-aminomethyl-3-fluoroallyl)oxy)-benzamide trifluoroacetate] | 1.6 ± 0.2 | > 10 | – |
| NC/C(=C\F)COc1ccc2c(c1)C(=O)CC2 [TM7-E, (E)-6-((2-aminomethyl-3-fluoroallyl)oxy)-2,3-dihydro-1-indenone trifluoroacetate] | 3 ± 0.7 | > 10 | > 100 |
| NC/C(=C/F)COc1ccc2c(c1)CCNC2=O [TM26-Z, (Z)-6-((2-aminomethyl-3-fluoroallyl)oxy)-3,4-dihydroisoquinolin-1(2H)-one trifluoroacetate] | 3.7 ± 0.8 | > 10 | > 100 |
| NC/C(=C\F)COc1ccc(-c2ncccn2)cc1 [TM39-E, (E)-2-(4-(2-pyrimidyl)phenoxymethyl)-3-fluoroallylamine trifluoroacetate] | 1.2 ± 0.2 | > 10 | > 10 |
| NC/C(=C\F)COc1ccc(C(=O)NC2CCOCC2)cc1 [TM76-E, (E)-N-(tetrahydro-2H-pyran-4-yl)-4-((2-aminomethyl-3-fluoroallyl)oxy)-benzamide trifluoroacetate] | 4.3 ± 0.6 | > 10 | > 100 |
| NC/C(=C/F)COc1ccc(C(=O)NCc2ccccn2)cc1 [TM112-Z, (Z)-4-((2-aminomethyl-3-fluoroallyl)oxy)-N-(pyridin-2-ylmethyl)benzamide trifluoroacetate] | 6.5 ± 1.8 | > 10 | > 100 |
| (E)-6-((2-(methylamino)-3-fluoroallyl)oxy)-2-methyl-3,4-dihydroisoquinolin-1(2H)-one trifluoroacetate [TM66-E] | 2 ± 0.4 | > 10 | > 10 |
| (E)-6-((2-(methylamino)-3-fluoroallyl)oxy)-3,3-dimethyl-3,4-dihydro-isoquinolin-1(2H)-one trifluoroacetate [TM38-E] | 4.7 ± 1.1 | > 10 | > 100 |
